The values below come from patent US12110294B2, “CD73 compounds” (Gilead Sciences, Inc., priority 2020, dated 2024).

In assay [1] the target is T1, CD73 (Homo sapiens, UniProt P21589).
T1 construct: purchased R&D system
T1 sequence (P21589 27-549): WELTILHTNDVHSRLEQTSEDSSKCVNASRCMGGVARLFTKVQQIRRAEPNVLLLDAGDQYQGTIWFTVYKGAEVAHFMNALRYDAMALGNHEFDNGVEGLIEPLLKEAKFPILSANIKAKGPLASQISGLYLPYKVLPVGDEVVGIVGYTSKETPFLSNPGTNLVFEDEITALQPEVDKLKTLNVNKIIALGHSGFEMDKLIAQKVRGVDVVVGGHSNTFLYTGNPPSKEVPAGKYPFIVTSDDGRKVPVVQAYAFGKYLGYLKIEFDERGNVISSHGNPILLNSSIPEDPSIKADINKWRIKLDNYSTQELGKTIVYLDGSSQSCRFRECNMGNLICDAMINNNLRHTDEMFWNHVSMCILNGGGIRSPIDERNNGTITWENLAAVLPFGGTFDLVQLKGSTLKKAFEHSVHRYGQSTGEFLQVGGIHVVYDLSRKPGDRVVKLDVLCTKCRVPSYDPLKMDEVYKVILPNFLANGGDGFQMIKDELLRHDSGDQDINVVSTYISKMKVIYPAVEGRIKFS
Kind of assay: CD73 Biochemical IC50 Assay. To be noted: final AMP 15 uM, final CD73 0.3 nM, 25 mM Tris pH 7.4, 5 mM MgCl2, no phosphate. Here is the method:
CD73 Biochemical IC50 Assay
Compound serial dilutions were pre-spotted into Thermo Nunc assay plate. 50 μL CD73 enzyme buffer (CD73 purchased from R&D system=0.6 nM, 25 mM Tris, pH 7.4, 5 mM MgCl2) was added into the assay plate and incubated for 15 mins. […] The samples were run using Rapid fire.

Assay [2] deals with T2, CD73 activity in MDA-MB-231-GFP cells (Homo sapiens, UniProt P21589).
T2 construct: endogenous in cells; host or cells: MDA-MB-231-GFP cells
T2 sequence (P21589 27-549): T1 sequence (P21589 27-549)
The assay is described as follows: MDA-MB-231 Cell Based CD73 Activity Assay. To be noted: 10000 cells per well, RPMI medium with 10% human plasma, overnight compound treatment, AMP 200 μM. Here is the method: MDA-MB-231 Cell Based CD73 Activity Assay
MDA-MB-231-GFP cells were seeded in 384-well plates (Greiner 781946) at a density of 10000 cells per well in 50 μL of RPMI medium with 10% HP (human plasma). Cells were plated into assay plate with compounds pre-spotted, for an overnight compound treatment. 50 μL of 400 μM AMP (final concentration 200 μM) using a Bio-tek dispenser. Plates were incubated for 100 mins. […] The samples were run using Rapid fire.

Assay [3] addresses T1, CD73. It is filed as biochemical. As to conditions: 1 mM NaH2PO4 in enzyme buffer, final AMP 15 uM, final CD73 0.3 nM.

A word on the IC50: it is the concentration that inhibits the measured activity by half. In general, EC50 refers to the midpoint of the concentration-response curve. High values mean a less potent agent, low ones a more potent agent.

Read-outs that look alike come from different tables or passages of the source.

Consider `O=c1[nH]cc(-c2cc([C@@H]3C[C@H]3c3ccccc3F)c3nccn3n2)c(=O)[nH]1` (racemic) [Example 28, 5-(8-((1S,2S)-2-(2-fluorophenyl)cyclopropyl)imidazo[1,2-b]pyridazin-6-yl)pyrimidine-2,4(1H,3H)-dione and 5-(8-((1R,2R)-2-(2-fluorophenyl)cyclopropyl)imidazo[1,2-b]pyridazin-6-yl)pyrimidine-2,4(1H,3H)-dione], for which the IC50 against CD73 [1] came to 16.8 nM. In assay [2], this compound gave an EC50 of 3.59 nM.
The compound `O=c1[nH]cc(-c2cc([C@H]3C[C@@H]3c3cccc(F)c3)c3nccn3n2)c(=O)[nH]1` (racemic) [Example 29, 5-(8-((1S,2S)-2-(3-fluorophenyl)cyclopropyl)imidazo[1,2-b]pyridazin-6-yl)pyrimidine-2,4(1H,3H)-dione and 5-(8-((1R,2R)-2-(3-fluorophenyl)cyclopropyl)imidazo[1,2-b]pyridazin-6-yl)pyrimidine-2,4(1H,3H)-dione] gave an IC50 against CD73 [1] of 16.3 nM. The compound further yielded an EC50 in assay [2] of 7.08 nM.
For `O=c1[nH]cc(-c2cc([C@@H]3C[C@H]3c3cccc(F)c3F)c3nccn3n2)c(=O)[nH]1` (racemic) [Example 32, 5-(8-((1S,2S)-2-(2,3-difluorophenyl)cyclopropyl)imidazo[1,2-b]pyridazin-6-yl)pyrimidine-2,4(1H,3H)-dione and 5-(8-((1R,2R)-2-(2,3-difluorophenyl)cyclopropyl)imidazo[1,2-b]pyridazin-6-yl)pyrimidine-2,4(1H,3H)-dione], in that order: 18.6 nM and 6.84 nM.
For `O=c1[nH]cc(-c2cc([C@@H]3C[C@H]3c3ccc(F)c(F)c3F)c3nccn3n2)c(=O)[nH]1` (racemic) [Example 34, 5-(8-((1S,2S)-2-(2,3,4-trifluorophenyl)cyclopropyl)imidazo[1,2-b]pyridazin-6-yl)pyrimidine-2,4(1H,3H)-dione and 5-(8-((1R,2R)-2-(2,3,4-trifluorophenyl)cyclopropyl)imidazo[1,2-b]pyridazin-6-yl)pyrimidine-2,4(1H,3H)-dione], in that order: 18.2 nM and 11.3 nM.
For the compound `O=c1[nH]cc(-c2cc([C@@H]3C[C@H]3c3cc(F)c(F)c(F)c3)c3nccn3n2)c(=O)[nH]1` (racemic) [Example 36, 5-(8-((1S,2S)-2-(3,4,5-trifluorophenyl)cyclopropyl)imidazo[1,2-b]pyridazin-6-yl)pyrimidine-2,4(1H,3H)-dione and 5-(8-((1R,2R)-2-(3,4,5-trifluorophenyl)cyclopropyl)imidazo[1,2-b]pyridazin-6-yl)pyrimidine-2,4(1H,3H)-dione], half-maximal inhibition on CD73 [1] (IC50) was put at 24.2 nM. In assay [2], this compound had an EC50 of 6.51 nM.
For `O=c1[nH]cc(-c2cc([C@@H]3C[C@H]3c3cccc(Cl)c3)c3nccn3n2)c(=O)[nH]1` (racemic) [Example 38, 5-(8-((1S,2S)-2-(3-chlorophenyl)cyclopropyl)imidazo[1,2-b]pyridazin-6-yl)pyrimidine-2,4(1H,3H)-dione and 5-(8-((1R,2R)-2-(3-chlorophenyl)cyclopropyl)imidazo[1,2-b]pyridazin-6-yl)pyrimidine-2,4(1H,3H)-dione], in that order: 14.3 nM and 7.29 nM.
For the compound `O=c1[nH]cc(-c2cc([C@@H]3C[C@H]3c3ccc(OC(F)(F)F)cc3)c3nccn3n2)c(=O)[nH]1` (racemic) [Example 48, 5-(8-((2S,2S)-2-(4-(trifluoromethoxy)phenyl)cyclopropyl)imidazo[1,2-b]pyridazin-6-yl)pyrimidine-2,4(1H,3H)-dione and 5-(8-((1R,2R)-2-(4-(trifluoromethoxy)phenyl)cyclopropyl)imidazo[1,2-b]pyridazin-6-yl)pyrimidine-2,4(1H,3H)-dione], the values for the IC50 against CD73 [1] and against CD73 [3] were 52.5 nM and 2.73 nM, respectively.
Regarding `N#Cc1cc([C@@H]2C[C@H]2c2cc(-c3c[nH]c(=O)[nH]c3=O)nn3ccnc23)ccc1F` (racemic) [Example 64, 5-((2S,2S)-2-(6-(2,4-dioxo-1,2,3,4-tetrahydropyrimidin-5-yl)imidazo[1,2-b]pyridazin-8-yl)cyclopropyl)-2-fluorobenzonitrile and 54(1R,2R)-2-(6-(2,4-dioxo-1,2,3,4-tetrahydropyrimidin-5-yl)imidazo[1,2-b]pyridazin-8-yl)cyclopropyl)-2-fluorobenzonitrile], the half-inhibitory concentration (IC50) turned out to be 14.7 nM at CD73 [1] and 1.5 nM against CD73 [3].
In turn, `O=c1[nH]cc(-c2cc([C@H]3C[C@@H]3c3ccccc3)c3ncc(F)n3n2)c(=O)[nH]1` (racemic) [Example 87, 5-[3-fluoro-8-[(1S,2S)-2-phenylcyclopropyl]imidazo[1,2-b]pyridazin-6-yl]-1H-pyrimidine-2,4-dione and 5-[3-fluoro-8-[(1R,2R)-2-phenylcyclopropyl]imidazo[1,2-b]pyridazin-6-yl]-1H-pyrimidine-2,4-dione] displayed an IC50 against CD73 [1] of 15.7 nM. This compound also had an EC50 in assay [2] of 3.24 nM.
On to `COc1ccccc1[C@@H]1C[C@H]1c1cc(-c2c[nH]c(=O)[nH]c2=O)nn2ccnc12` (racemic) [Example 101, 5-(8-((2S,2S)-2-(2-methoxyphenyl)cyclopropyl)imidazo[1,2-b]pyridazin-6-yl)pyrimidine-2,4(1H,3H)-dione and 5-(8-((1R,2R)-2-(2-methoxyphenyl)cyclopropyl)imidazo[1,2-b]pyridazin-6-yl)pyrimidine-2,4(1H,3H)-dione], for which the IC50 against CD73 [1] was determined as 15.9 nM.
The compound `O=c1[nH]cc(-c2cc([C@H]3C[C@@H]3c3ccccc3)c3nccn3n2)c(=O)[nH]1` (racemic) [Example 104, 5-(8-((2S,2S)-2-phenylcyclopropyl)imidazo[1,2-b]pyridazin-6-yl)pyrimidine-2,4-(1H,3H)-dione and 5-(8-((1R,2R)-2-phenylcyclopropyl)imidazo[1,2-b]pyridazin-6-yl)pyrimidine-2,4-(1H,3H)-dione] registered a half-maximal inhibitory concentration (IC50) on CD73 [1] of 196 nM. In assay [2], this compound displayed an EC50 of 23.2 nM.
The compound `O=c1[nH]cc(-c2cc([C@@H]3C[C@H]3C3CC(F)(F)C3)c3nccn3n2)c(=O)[nH]1` (racemic) [Example 106, 5-(8-((1S,2R)-2-(3,3-difluorocyclobutyl)cyclopropyl)imidazo[1,2-b]pyridazin-6-yl)pyrimidine-2,4(1H,3H)-dione and 5-(8-((1R,2S)-2-(3,3-difluorocyclobutyl)cyclopropyl)imidazo[1,2-b]pyridazin-6-yl)pyrimidine-2,4(1H,3H)-dione] registered a concentration for half-maximal inhibition (IC50) against CD73 [1] of 105 nM. That is a sub-micromolar value.
As for `O=c1[nH]cc(-c2cc([C@@H]3C[C@H]3C(F)(F)F)c3nccn3n2)c(=O)[nH]1` (racemic) [Example 107, 5-(8-((2S,2S)-2-(trifluoromethyl)cyclopropyl)imidazo[1,2-b]pyridazin-6-yl)pyrimidine-2,4(1H,3H)-dione and 5-(8-((1R,2R)-2-(trifluoromethyl)cyclopropyl)imidazo[1,2-b]pyridazin-6-yl)pyrimidine-2,4(1H,3H)-dione], the midpoint of inhibition against CD73 [1], the IC50, lay at 46.8 nM.
`O=c1[nH]cc(-c2cc([C@@H]3C[C@@]3(F)c3ccccc3)c3nccn3n2)c(=O)[nH]1` (racemic) [Example 108, 5-(8-((1R,2R)-2-fluoro-2-phenylcyclopropyl)imidazo[1,2-b]pyridazin-6-yl)pyrimidine-2,4(1H,3H)-dione and 5-(8-((1S,2S)-2-fluoro-2-phenylcyclopropyl)imidazo[1,2-b]pyridazin-6-yl)pyrimidine-2,4(1H,3H)-dione] returned an IC50 against CD73 [1] of 35 nM.
`N#Cc1ccccc1[C@H]1C[C@@H]1c1cc(-c2c[nH]c(=O)[nH]c2=O)nn2ccnc12` [Example 49, 2-((1S,2S)-2-(6-(2,4-dioxo-1,2,3,4-tetrahydropyrimidin-5-yl)imidazo[1,2-b]pyridazin-8-yl)cyclopropyl)benzonitrile] came in with an IC50 at CD73 [1] of 17.5 nM. This compound also displayed an EC50 in assay [2] of 19 nM.
For `O=c1[nH]cc(-c2cc(N3C[C@@H](F)[C@@H](F)C3)c3nccn3n2)c(=O)[nH]1` [Example 77, 5-[8-[(3S,4R)-3,4-difluoropyrrolidin-1-yl]imidazo[1,2-b]pyridazin-6-yl]-1H-pyrimidine-2,4-dione and 5-[8-[(3R,4S)-3,4-difluoropyrrolidin-1-yl]imidazo[1,2-b]pyridazin-6-yl]-1H-pyrimidine-2,4-dione], the IC50 on CD73 [1] amounted to 22.6 nM; at CD73 [3], 3.5 nM.
As to `COc1ccc([C@H]2C[C@@H]2c2cc(-c3c[nH]c(=O)[nH]c3=O)nn3ccnc23)cc1` [Example 112, 5-(8-((1S,2S)-2-(4-methoxyphenyl)cyclopropyl)imidazo[1,2-b]pyridazin-6-yl)pyrimidine-2,4(1H,3H)-dione], on CD73 [1], half-maximal inhibition (IC50) required 20.5 nM. For the same compound, the 50% effective concentration (EC50) in assay [2] was determined as 2.23 nM.
